Tests used:
Assay type in all cases: in vivo
Ustilago nuda = Ustilago nuda test (barley)/seed treatment/outdoor trial; settings: summer barley, infected seed, outdoor trial, application rate 10 g/100 kg of seed, evaluated at begin to middle of blossom
Method: Ustilago nuda Test (Barley)/Seed Treatment/Outdoor Trial Cereal species: Summer barley Amount of seed per plot: 40 g Plot size: 2 m^2 Number of repetitions: 3 Development stage: Begin to middle of blossom The active compounds are applied as a commercial formulation. For dressing, the preparation is initially charged in a dressing beaker and placed on a dressing shaker. The infected seed is added and shaken for about 2-3 min, until homogenization is achieved. After preparing the soil in a customary manner, outdoor sowing is carried out at a time which favours infection by the disease. Evaluation is carried out at a time when all the disease symptoms are clearly present. 0% means an efficacy which corresponds to that of the control, whereas an efficacy of 100% means that no infection is observed.

Pyrenophora graminea = Pyrenophora graminea test (barley)/seed treatment/outdoor trial; settings: summer barley, infected seed, outdoor trial, application rate 10 g/100 kg of seed, evaluated at begin of heading
Method: Pyrenophora graminea Test (Barley)/Seed Treatment/Outdoor Trial
Cereal species: Summer barley Plot size: 2 m^2 Amount of seed per plot: 40 g Number of repetitions: 3 Development stage at the time of evaluation: Begin of heading
The active compounds are applied as a commercial formulation.
For dressing, the preparation is initially charged in a dressing beaker and placed on a dressing shaker. The infected seed is added and shaken for about 2-3 min, until homogenization is achieved.
After preparing the soil in a customary manner, outdoor sowing is carried out at a time which favours infection by the disease.
Evaluation is carried out at a time when all the disease symptoms are clearly present. 0% means an efficacy which corresponds to that of the control, whereas an efficacy of 100% means that no infection is observed.

Rhizoctonia solani [1] = test: Rhizoctonia solani test (cotton)/seed treatment; settings: dry seed dressing, application rate 50 g/100 kg of seed, evaluated after 7-8 days, method of Abbot
Method: Rhizoctonia solani Test (Cotton)/Seed Treatment The active compounds are applied as dry seed dressing. This is prepared by extending the active compounds in question with ground minerals to give a finely pulverulent mixture which ensures uniform distribution on the seed surface. To dress the seed, the seed together with the seed dressing is shaken for 3 minutes in a closed glass bottle. 2×50 seed corns are sown in standardized soil in seed trays. Perlite infected with Rhizoctonia solani (5 ml/seed tray) is scattered between the seed and covered with Lecaton, and the seeds are then cultivated in a greenhouse at a temperature of about 22° C. and 15 hours of light per day. After 7-8 days, all the emerged and diseased plants are evaluated. The effect is calculated by the method of Abbot. 0% means an efficacy which corresponds to that of the control, whereas an efficacy of 100% means that no infection is observed.

Rhizoctonia solani [2] = test: Rhizoctonia solani test (rice)/seed treatment; settings: rice (cultivar Koshihikari), seed dressing, application rate 200 g/100 kg of seed, evaluated seven days after inoculation
Method: Rhizoctonia solani Test (Rice)/Seed Treatment Rice seed (cultivar Koshihikari) is soaked at 15° C. in distilled water for 10 days, transferred into fresh water and, whilst being ventilated, soaked at 32° C. for 1 day. The seed is then dried at room temperature for a number of hours. 7.6 mg of the test substance are dissolved in 200 μl of acetone in a test vessel, an aliquot of seed (corresponding to 3.8 g of dry seed) is added, the samples mixed and the acetone is aspirated. The seed is sown on soil in a plastic vessel having a diameter of 7.5 cm and cultivated in an incubator at 32° C. with high atmospheric humidity in the dark for 3 days. The seedlings are then cultivated in a greenhouse at on average 21° C. for 2 weeks. In each case 5 seedlings are transferred into 5 plastic vessels having a diameter of 12 cm and cultivated in a greenhouse at on average 25° C. for 5-6 weeks. Mycelia of Rhizoctonia solani which had been grown on sterile barley corns are placed at the foot of the rice plant (5 cm from the soil surface) and incubated in a glass chamber with high atmospheric humidity at on average 27° C. Seven days after the inoculation, the degree of infection is evaluated and the efficacy is calculated. [table]

For `CC(C)CC(C)c1sccc1NC(=O)c1cn(C)nc1C(F)(F)F` (stereo not shown) [drawing 52], the Efficacy in % (Ustilago nuda) was 99%.
With `Cc1nn(C)c(F)c1C(=O)Nc1ccccc1C(C)CC(C)C` (stereo not shown) [drawing 48] the Efficacy in % (Pyrenophora graminea) was 97%.
With `CC(C)CC(C)c1sccc1NC(=O)c1cn(C)nc1C(F)(F)F` (stereo not shown) [drawing 47] the Efficacy in % (Rhizoctonia solani [1]) was 100%.
In the case of `Cc1nn(C)c(F)c1C(=O)Nc1ccccc1C(C)CC(C)C` (stereo not shown) [drawing 51], the Efficacy in % (Ustilago nuda) was 100%.
Work on `Cc1nn(C)c(F)c1C(=O)Nc1ccccc1C(C)CC(C)C` (stereo not shown) [drawing 50] yielded an Efficacy in % (Rhizoctonia solani [2]) of 91%.
`Cc1nn(C)c(F)c1C(=O)Nc1ccccc1C(C)CC(C)C` (stereo not shown) [drawing 46] was tested, and the Efficacy in % (Rhizoctonia solani [1]) was 100%.
In the case of `CC(C)CC(C)c1sccc1NC(=O)c1cn(C)nc1C(F)(F)F` (stereo not shown) [drawing 49], the Efficacy in % (Pyrenophora graminea) was 97%.

Source: US20160227778A1, “SEED DRESSING FOR CONTROLLING PHYTOPATHOGENIC FUNGI” (BAYER INTELLECTUAL PROPERTY GMBH, priority 2004, published 2016)
